Experimental data as given in patent publication US20090069356A1, “USE OF ANILINOPYRIMIDINES IN WOOD PROTECTION” (priority 2004, published 2009).
Converted amounts (≈) assume the structure as drawn.

Experiments:
[1] = test system: Aspergillus niger CBS 554.65 (An); assay: Poison plate assay; type: cell-based; conditions: CBS554, 168 h, evaluated after one week
[2] = test system: Chaetomium globosum CEB 1218.2 (Cg); assay: Poison plate assay; type: cell-based; parameters: key: When no fungal growth was observed, the abbreviation “ng” was used; conditions: evaluated after one week
[3] = test system: Aureobasidium pullulans P 268 (Ap1); assay: Poison plate assay; type: cell-based; conditions: 168 h, evaluated after one week
[4] = test system: Aspergillus niger CBS 554.65; assay: Stick test on treated Scots Pine; type: cell-based; conditions: 3 weeks exposure
Text: (§1) [table] […] GA medium was used as a less nutrient-rich alternative to PDA, in order to prevent the test fungi from bypassing the specific mode of action of anilinopyrimidines like cyprodinil, pyrimethanil and […].

[5] = test system: Trichoderma viride CBS 189.79; assay: Stick test on treated Scots Pine; type: cell-based; conditions: 3 weeks exposure
Text: as §1

[6] = test system: Aureobasidium pullulans P 268; assay: Stick test on treated Scots Pine; type: cell-based; conditions: 3 weeks exposure
Text: as §1

[7] = test system: Chaetomium globosum ATCC 6205; assay: Stick test on treated Scots Pine; type: cell-based; conditions: 3 weeks exposure
Text: as §1

[8] = test system: Cladosporium cladosporioides IHEM 3795; assay: Stick test on treated Scots Pine; type: cell-based; conditions: 3 weeks exposure
Text: as §1

[9] = test system: Coniophora puteana BAM 15; assay: Stick test on treated Scots Pine; type: cell-based; conditions: 3 weeks exposure
Text: as §1

[10] = test system: Trichoderma sp. isol. MB test; assay: Stick test on treated Scots Pine; type: cell-based; conditions: 3 weeks exposure
Text: as §1

[11] = test system: Coriolus versicolor CTB 863A; assay: Stick test on treated Scots Pine; type: cell-based; conditions: 3 weeks exposure
Text: as §1

Humicola grisea MG 28 = assay: Stick test on treated Scots Pine; type: cell-based; conditions: 3 weeks exposure
Text: as §1

[12] = test system: Humicola grisea MG 28 (Hg); assay: Poison plate assay; type: cell-based; conditions: 168 h, evaluated after one week
[13] = test system: Aspergillus niger and A. carbonarius; conditions: vineyards; Tjamos et al., Journal of Phytopathology (2004); cited from earlier work

| SMILES | MIC ([1]; medium CDA) | MIC ([1]; medium GA) | MIC ([1]; medium GGA) | MIC value, Cg ([2]; medium CDA) | MIC value, Cg ([2]; medium GA) | MIC value, Cg ([2]; medium GGA) | MIC ([3]; medium CDA) | MIC ([3]; medium GA) | MIC ([3]; medium GGA) | Threshold value, A. niger ([4]; medium GA) | Threshold value, A. niger ([4]; medium PDA) | Threshold value, T. viride ([5]; medium GA) | Threshold value, T. viride ([5]; medium PDA) | Threshold value, A. pullulans ([6]; medium GA) | Threshold value, A. pullulans ([6]; medium PDA) | Threshold value, C. globosum ([7]; medium GA) | Threshold value, C. globosum ([7]; medium PDA) | Threshold value, C. cladosporioides ([8]; medium GA) | Threshold value, C. cladosporioides ([8]; medium PDA) | Threshold value, C. puteana ([9]; medium GA) | also measured |
| --- | --- | --- | --- | --- | --- | --- | --- | --- | --- | --- | --- | --- | --- | --- | --- | --- | --- | --- | --- | --- | --- |
| Cc1cc(C)nc(Nc2ccccc2)n1 [pyrimethanil, 4,6-dimethyl-N-phenyl-2-pyrimidinamine] | < 0.6 µg/mL | < 0.6 µg/mL | 20 µg/mL (≈ 100 µM) | ng | ng | ng | 20 µg/mL (≈ 100 µM) | 20 µg/mL (≈ 100 µM) | 20 µg/mL (≈ 100 µM) | >6400 ppm | >6400 ppm | >6400 ppm | >6400 ppm | 1600-3200 ppm | >6400 ppm | 800-1600 ppm | >6400 ppm | 1600-3200 ppm | >6400 ppm | >6400 ppm | Threshold value, C. puteana ([9]; medium PDA): >6400 ppm; Threshold value, T. sp. ([10]; medium GA): >6400 ppm; Threshold value, T. sp. ([10]; medium PDA): >6400 ppm; Threshold value, C. versicolor ([11]; medium GA): >6400 ppm; Threshold value, C. versicolor ([11]; medium PDA): >6400 ppm; Threshold value, H. grisea (Humicola grisea MG 28; medium GA): 800-1600 ppm; Threshold value, H. grisea (Humicola grisea MG 28; medium PDA): 1600-3200 ppm; MIC ([12]; medium CDA): > 20 µg/mL; MIC ([12]; medium GA): > 20 µg/mL; MIC ([12]; medium GGA): > 20 µg/mL |
| COC(=O)Nc1nc2ccccc2[nH]1 [carbendazim] |  |  |  |  |  |  |  |  |  |  |  |  |  |  |  |  |  |  |  |  | Control of Aspergillus spp. infection [13]: ineffective |
| Cc1cc(C2CC2)nc(Nc2ccccc2)n1 [cyprodinil, 4-cyclopropyl-6-methyl-N-phenyl-2-pyrimidinamine] | < 0.6 µg/mL | < 0.6 µg/mL | < 0.6 µg/mL | ng | ng | ng | 5 µg/mL (≈ 22.2 µM) | 10 µg/mL (≈ 44.4 µM) | 5 µg/mL (≈ 22.2 µM) | >6400 ppm | >6400 ppm | >6400 ppm | >6400 ppm | 3200-6400 ppm | >6400 ppm | 100-200 ppm | 1600-3200 ppm | 800-1600 ppm | >6400 ppm | 3200-6400 ppm | Threshold value, C. puteana ([9]; medium PDA): >6400 ppm; Threshold value, T. sp. ([10]; medium GA): >6400 ppm; Threshold value, T. sp. ([10]; medium PDA): >6400 ppm; Threshold value, C. versicolor ([11]; medium GA): >6400 ppm; Threshold value, C. versicolor ([11]; medium PDA): >6400 ppm; Threshold value, H. grisea (Humicola grisea MG 28; medium GA): 200-400 ppm; Threshold value, H. grisea (Humicola grisea MG 28; medium PDA): 800-1600 ppm; MIC ([12]; medium CDA): 10 µg/mL (≈ 44.4 µM); MIC ([12]; medium GA): 10 µg/mL (≈ 44.4 µM); MIC ([12]; medium GGA): 20 µg/mL (≈ 88.8 µM) |
| CC#Cc1cc(C)nc(Nc2ccccc2)n1 [mepanipyrim, 4-methyl-6-(prop-1-ynyl)-N-phenyl-2-pyrimidinamine] | < 0.6 µg/mL | < 0.6 µg/mL | < 0.6 µg/mL | ng | ng | ng | 10 µg/mL (≈ 44.8 µM) | 20 µg/mL (≈ 89.6 µM) | 20 µg/mL (≈ 89.6 µM) | >6400 ppm | 1600-3200 ppm | >6400 ppm | >6400 ppm | >6400 ppm | >6400 ppm | 200-400 ppm | >6400 ppm | >6400 ppm | >6400 ppm | >6400 ppm | Threshold value, C. puteana ([9]; medium PDA): >6400 ppm; Threshold value, T. sp. ([10]; medium GA): >6400 ppm; Threshold value, T. sp. ([10]; medium PDA): >6400 ppm; Threshold value, C. versicolor ([11]; medium GA): >6400 ppm; Threshold value, C. versicolor ([11]; medium PDA): >6400 ppm; Threshold value, H. grisea (Humicola grisea MG 28; medium GA): 200-400 ppm; Threshold value, H. grisea (Humicola grisea MG 28; medium PDA): >6400 ppm; MIC ([12]; medium CDA): 10 µg/mL (≈ 44.8 µM); MIC ([12]; medium GA): 20 µg/mL (≈ 89.6 µM); MIC ([12]; medium GGA): 20 µg/mL (≈ 89.6 µM) |
